Laboratory results from BigSolDB 2.1.

Compound | solubility (mole fraction) (in ethanol, 278 K) | solubility (mole fraction) (in ethanol, 283 K) | solubility (mole fraction) (in ethanol, 288 K) | solubility (mole fraction) (in ethanol, 293 K) | solubility (mole fraction) (in ethanol, 298 K) | solubility (mole fraction) (in ethanol, 303.2 K) | solubility (mole fraction) (in ethanol, 308 K) | solubility (mole fraction) (in ethanol, 313 K) | solubility (mole fraction) (in ethanol, 318 K) | solubility (mole fraction) (in ethanol, 323 K) | solubility (mole fraction) (in n-propanol, 278 K) | solubility (mole fraction) (in n-propanol, 283 K) | solubility (mole fraction) (in n-propanol, 288 K) | solubility (mole fraction) (in n-propanol, 293 K) | solubility (mole fraction) (in n-propanol, 298 K) | solubility (mole fraction) (in n-propanol, 303.1 K) | solubility (mole fraction) (in n-propanol, 308.2 K) | solubility (mole fraction) (in n-propanol, 313 K) | solubility (mole fraction) (in n-propanol, 318 K) | solubility (mole fraction) (in n-propanol, 323 K) | further results
O=S(=O)([N-]Cl)c1ccccc1.[Na+] | 0.0164 | 0.0193 | 0.0224 | 0.0264 | 0.031 | 0.0364 | 0.0422 | 0.0486 | 0.0561 | 0.066 | 0.00195 | 0.00348 | 0.00536 | 0.00778 | 0.0106 | 0.0142 | 0.0188 | 0.0245 | 0.0307 | 0.0378 | solubility (mole fraction) (in sec-butanol, 278 K): 0.00185; solubility (mole fraction) (in sec-butanol, 283 K): 0.00228; solubility (mole fraction) (in sec-butanol, 288 K): 0.00287; solubility (mole fraction) (in sec-butanol, 293 K): 0.00383; solubility (mole fraction) (in sec-butanol, 298.4 K): 0.00481; solubility (mole fraction) (in sec-butanol, 303.2 K): 0.00585; solubility (mole fraction) (in sec-butanol, 308 K): 0.00706; solubility (mole fraction) (in sec-butanol, 313 K): 0.0091; solubility (mole fraction) (in sec-butanol, 318 K): 0.0117; solubility (mole fraction) (in sec-butanol, 323 K): 0.015; solubility (mole fraction) (in water, 278 K): 0.0074; solubility (mole fraction) (in water, 283 K): 0.00829; solubility (mole fraction) (in water, 288 K): 0.0102; solubility (mole fraction) (in water, 293 K): 0.0127; solubility (mole fraction) (in water, 298 K): 0.0158; solubility (mole fraction) (in water, 303.1 K): 0.0192; solubility (mole fraction) (in water, 308.2 K): 0.0241; solubility (mole fraction) (in water, 313 K): 0.0316; solubility (mole fraction) (in water, 318 K): 0.0421; solubility (mole fraction) (in water, 323 K): 0.0554
Cc1ccc(S(=O)(=O)[N-]Cl)cc1.[Na+] | 0.02 | 0.0221 | 0.0244 | 0.0268 | 0.0299 | 0.034 | 0.0388 | 0.0441 | 0.0499 | 0.0564 | 0.00503 | 0.00636 | 0.00776 | 0.00932 | 0.0109 | 0.013 | 0.0156 | 0.0191 | 0.0235 | 0.0291 | solubility (mole fraction) (in sec-butanol, 278 K): 0.00101; solubility (mole fraction) (in sec-butanol, 283 K): 0.00135; solubility (mole fraction) (in sec-butanol, 288 K): 0.00201; solubility (mole fraction) (in sec-butanol, 293 K): 0.00322; solubility (mole fraction) (in sec-butanol, 298.4 K): 0.00464; solubility (mole fraction) (in sec-butanol, 303.2 K): 0.00595; solubility (mole fraction) (in sec-butanol, 308 K): 0.00723; solubility (mole fraction) (in sec-butanol, 313 K): 0.00881; solubility (mole fraction) (in sec-butanol, 318 K): 0.0114; solubility (mole fraction) (in sec-butanol, 323 K): 0.0141; solubility (mole fraction) (in water, 278 K): 0.00684; solubility (mole fraction) (in water, 283 K): 0.008; solubility (mole fraction) (in water, 288 K): 0.00955; solubility (mole fraction) (in water, 293 K): 0.0114; solubility (mole fraction) (in water, 298 K): 0.0138; solubility (mole fraction) (in water, 303.1 K): 0.0171; solubility (mole fraction) (in water, 308.2 K): 0.0218; solubility (mole fraction) (in water, 313 K): 0.0284; solubility (mole fraction) (in water, 318 K): 0.037; solubility (mole fraction) (in water, 323 K): 0.0477
